These results are taken from PubChem BioAssay (NCI).

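A five-concentration, 48-hour dose response in 96-well plates underlies each endpoint, interpolated linearly between surrounding concentrations. TGI denotes the concentration required for complete inhibition of growth.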

Holding throughout (experiment): DTP human tumour cell line panel, 48 h
The test system of experiment [1] is SK-MEL-5 melanoma.
For experiment [2], the system named is SK-OV-3 ovarian.
For experiment [3], the system named is COLO 205 colon.
For experiment [4], the system named is HCC-2998 colon.
For experiment [5], the system named is OVCAR-4 ovarian.
Experiment [6] relates to CAKI-1 renal.
The test system of experiment [7] is A549 NSCLC.
The subject of experiment [8] is HOP-92 NSCLC.
Experiment [9] relates to RPMI-8226 leukemia.

Usually TGI stands for the concentration giving total growth inhibition. Read a high TGI as lower sensitivity of the cells. As to `CCC1(C)NN=c2s/c(=C/c3ccc(OC)cc3)c(=O)n2N1` (stereo unspecified), the TGI in [1], in [2], in experiment [3], in experiment [4], in experiment [5] and in experiment [6] was more than 100 µM in each case. The results for the TGI in experiment [7] and in experiment [8] were more than 100 µM and 96.3 µM, respectively.

For `CCC(C)CN1C(=O)NC(C)(Cc2ccccc2)C1=O` (stereo unspecified), the TGI in experiment [1], in experiment [3], in experiment [4], in [6], in experiment [7] and in [8] was more than 100 µM each time.

Regarding `O=C(NCCCCCCCCNC(=O)c1cnc2ccccc2n1)c1cnc2ccccc2n1`, the TGI in experiment [1], in [2], in [3], in experiment [5], in experiment [9] and in experiment [6] was more than 100 µM each time. For the same compound, the concentration for total growth inhibition (TGI) in experiment [7] and in experiment [8] was more than 100 µM in each case.

On to `C=CCC1OC(C)(C)Oc2ccc(OCOCCOC)cc21` (stereo unspecified), for which the TGI in experiment [1], in experiment [2], in experiment [4], in experiment [5], in experiment [6] and in [7] was more than 100 µM in each case. This compound registered a TGI in [8] of more than 100 µM.

Consider `N#Cc1cccc(N2C(=O)c3c(c(-c4ccccc4)c(-c4ccc(Sc5ccc(-c6c(-c7ccccc7)c7c(c(-c8ccccc8)c6-c6ccccc6)C(=O)N(c6cccc(C#N)c6)C7=O)cc5)cc4)c(-c4ccccc4)c3-c3ccccc3)C2=O)c1`, for which the TGI in experiment [1], in experiment [3], in experiment [4], in experiment [5], in [9] and in experiment [7] was more than 100 µM each time. Besides, the concentration for total growth inhibition (TGI) in experiment [8] stood at 99.4 µM.

With `N=C(c1ccccc1)N(c1ccccc1)c1ccccc1`, the TGI in experiment [3], in experiment [4], in [5], in experiment [6] and in experiment [7] was more than 100 µM each time.

As for `CC1=C(C(=O)NCc2ccccc2)C(c2ccc(C3C(C(=O)NCc4ccccc4)=C(C)NC(C)=C3C(=O)NCc3ccccc3)cc2)C(C(=O)NCc2ccccc2)=C(C)N1`, the TGI in experiment [1] was 30.9 µM; in experiment [3], 21.3 µM; in experiment [4], 35.3 µM; in [5], 31.3 µM; in experiment [9], more than 100 µM; in [6], 34.9 µM. For the same compound, the TGI in experiment [7] came to 61.3 µM; in [8], 32.9 µM.

Consider `CCOc1ccc(NC(=O)CC2SC(=Nc3ccc(Cl)cc3)NC2=O)cc1` (stereo unspecified), for which the TGI in [1], in experiment [2], in [3], in [4], in experiment [5] and in experiment [9] was more than 100 µM in each case. Also, the results for the TGI in [6] and in experiment [7] were 48.8 µM and more than 100 µM, respectively.

As to `COc1cc2c(cc1O)C=NCC2`, the TGI in experiment [1], in [2], in experiment [3], in [5], in experiment [9] and in experiment [6] was more than 100 µM throughout. Moreover, the TGI in [7] and in experiment [8] was more than 100 µM throughout.

As for `C#CCC[C@@H]1O[C@@]1(C)CC/C=C(\C)CC/C=C/C=O`, the TGI in experiment [2] is more than 100 µM; in experiment [3], more than 100 µM; in experiment [9], 56.4 µM; in experiment [7], more than 100 µM; in [8], 63.5 µM.

For `COc1ccc(/C(=N/NC(N)=O)C2(O)C(=O)Nc3ccc([N+](=O)[O-])cc32)cc1` (stereo unspecified), the TGI in experiment [1] is 77.2 µM; in experiment [2], more than 100 µM; in experiment [3] it was 53.4 µM; in [4], more than 100 µM; in [5], 27.1 µM; in [9] it was 74.1 µM. For the same compound, the TGI was 57.7 µM in experiment [6], more than 100 µM in experiment [7] and 45.4 µM in experiment [8].

For the compound `CC[P+](C)(Cc1ccccc1)c1ccccc1` (stereo unspecified), the TGI in [1], in [2], in [3], in experiment [4], in experiment [5] and in experiment [9] was more than 100 µM in each case. Moreover, in experiment [7], the total growth inhibition concentration (TGI) was more than 100 µM.

Consider `O=C(O)c1ccccc1Cc1ccco1`, for which the TGI in [1], in experiment [2], in [3], in experiment [4], in experiment [5] and in experiment [9] was more than 100 µM each time. Further, the total growth inhibition concentration (TGI) in experiment [6], in experiment [7] and in [8] was more than 100 µM in each case.

On to `CN(C)c1ccc2c(c1)C(=O)N(OS(=O)(=O)c1ccc([N+](=O)[O-])cc1)C2=O`, for which the TGI in experiment [1] is more than 100 µM; in experiment [2] it was more than 100 µM; in [3], 54.6 µM; in experiment [4], 60.3 µM; in experiment [5], 31.5 µM; in [6] it was 54.2 µM. Besides, the figures for the TGI in experiment [7] and in [8] were more than 100 µM and more than 10 µM, respectively.

Consider `CC1CC2C3CC(F)C4=CC(=O)C=CC4(C)C3(F)C(O)CC2(C)C1(O)C(=O)COC(=O)C(C)(C)C` (stereo unspecified), for which the TGI in experiment [1], in [3], in experiment [4], in [5], in experiment [9] and in experiment [6] was more than 100 µM throughout. Besides, the TGI in experiment [7] and in experiment [8] was more than 100 µM each time.

As to `Cc1cccc(C(=O)c2cccc3ccccc23)c1C(=O)O`, the TGI in experiment [1] is more than 100 µM; in experiment [2], more than 100 µM; in experiment [3] it was 80 µM; in experiment [5] it was more than 100 µM; in experiment [9] it was more than 100 µM; in experiment [7], more than 100 µM. This compound returned a TGI in experiment [8] of more than 100 µM.

Turning to `c1ccc(SC2(Sc3ccccc3)CCCC2)cc1`, the TGI in experiment [1], in experiment [2], in experiment [3], in [5], in experiment [9] and in experiment [6] was more than 100 µM throughout. For the same compound, the TGI in experiment [7] and in experiment [8] was more than 100 µM throughout.
